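In this assay, cells in 96-well plates receive the compound at five concentrations for 48 hours. Endpoints are linearly interpolated between the surrounding concentrations. GI50 is the concentration that inhibits growth by half. TGI marks complete inhibition of growth.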
What was measured:
Experiment in all cases: NCI anticancer screen, dose series, 48 h
[1] = tested on: HOP-92 NSCLC
[2] = tested on: KM12 colon
[3] = tested on: COLO 205 colon
[4] = tested on: NCI-H460 lung
[5] = tested on: BT-549 breast
[6] = tested on: A549 NSCLC
[7] = tested on: UO-31 renal
[8] = tested on: SR leukemia
[9] = tested on: SN12C renal
[10] = tested on: K-562 leukemia
[11] = tested on: TK-10 renal
[12] = tested on: M14 melanoma
[13] = tested on: RXF 393 renal
[14] = tested on: SK-MEL-28 melanoma
[15] = tested on: IGROV1 ovarian
[16] = tested on: MCF7 breast
[17] = tested on: A498 renal
[18] = tested on: MDA-MB-231 breast
[19] = tested on: HCT-15 colon
[20] = tested on: OVCAR-5 ovarian
[21] = tested on: SNB-75 CNS
[22] = tested on: LOX IMVI melanoma
[23] = tested on: HCC-2998 colon
[24] = tested on: UACC-62 melanoma
[25] = tested on: PC-3 prostate
[26] = tested on: 786-0 renal
[27] = tested on: OVCAR-8 ovarian
[28] = tested on: OVCAR-3 ovarian
[29] = tested on: ACHN renal

Q: For `Cc1cnc(NC2CCOCC2)nc1-n1cnc(C(=O)N[C@H](CN)c2cc(F)cc(Cl)c2)c1`, which TGI [1] is on record?
A: The TGI was 2.12 µM.

Q: And the GI50 [2]?
A: Its GI50 is 0.0814 µM.

Q: What about the TGI [2] of the same compound?
A: Its TGI is 30.1 µM.

Q: And the GI50 [3]?
A: The GI50 was less than 0.01 µM.

Q: And the TGI [3]?
A: The TGI was 14.2 µM.

Q: And the GI50 [4]?
A: Its GI50 is 1.05 µM.

Q: And the TGI [4]?
A: The TGI was 17.9 µM.

Q: And the GI50 [5]?
A: Its GI50 is 5.02 µM.

Q: And the TGI [5]?
A: The TGI was 17.2 µM.

Q: What about the GI50 [6] of the same compound?
A: Its GI50 is 0.216 µM.

Q: What about the TGI [6] of the same compound?
A: Its TGI is 30.5 µM.

Q: And the GI50 [7]?
A: The GI50 was 0.903 µM.

Q: What about the TGI [7] of the same compound?
A: The TGI was 5.43 µM.

Q: And the GI50 [8]?
A: Its GI50 is 1.14 µM.

Q: What about the TGI [8] of the same compound?
A: The TGI was 16.5 µM.

Q: What about the GI50 [9] of the same compound?
A: The GI50 was 2.27 µM.

Q: And the TGI [9]?
A: The TGI was greater than 52.1 µM.

Q: What about the GI50 [10] of the same compound?
A: The GI50 was 0.783 µM.

Q: And the TGI [10]?
A: Its TGI is 14.5 µM.

Q: And the GI50 [11]?
A: Its GI50 is 0.113 µM.

Q: What about the TGI [11] of the same compound?
A: The TGI was 23 µM.

Q: What about the GI50 [12] of the same compound?
A: Its GI50 is 0.0193 µM.

Q: What about the TGI [12] of the same compound?
A: The TGI was 2.38 µM.

Q: What about the GI50 [13] of the same compound?
A: The GI50 was 0.101 µM.

Q: What about the TGI [13] of the same compound?
A: The TGI was 2.42 µM.

Q: And the GI50 [14]?
A: The GI50 was 0.0203 µM.

Q: And the TGI [14]?
A: The TGI was 13.5 µM.

Q: What about the GI50 [15] of the same compound?
A: Its GI50 is 0.0702 µM.

Q: What about the TGI [15] of the same compound?
A: The TGI was 13 µM.

Q: And the GI50 [16]?
A: Its GI50 is 1.58 µM.

Q: What about the TGI [16] of the same compound?
A: The TGI was 15.4 µM.

Q: And the GI50 [17]?
A: Its GI50 is 0.0508 µM.

Q: What about the TGI [17] of the same compound?
A: The TGI was 0.462 µM.

Q: What about the GI50 [18] of the same compound?
A: Its GI50 is 0.0999 µM.

Q: What about the TGI [18] of the same compound?
A: Its TGI is greater than 30.6 µM.

Q: And the GI50 [19]?
A: The GI50 was 3.06 µM.

Q: And the TGI [19]?
A: The TGI was 34.3 µM.

Q: What about the GI50 [20] of the same compound?
A: Its GI50 is 0.0269 µM.

Q: And the TGI [20]?
A: The TGI was greater than 82.8 µM.

Q: And the GI50 [21]?
A: The GI50 was 0.103 µM.

Q: And the TGI [21]?
A: Its TGI is 8.84 µM.

Q: What about the GI50 [22] of the same compound?
A: Its GI50 is 0.0441 µM.

Q: And the TGI [22]?
A: Its TGI is 5.88 µM.

Q: And the GI50 [23]?
A: Its GI50 is 0.018 µM.

Q: What about the TGI [23] of the same compound?
A: Its TGI is 11.6 µM.

Q: And the GI50 [24]?
A: The GI50 was 0.0102 µM.

Q: What about the TGI [24] of the same compound?
A: Its TGI is 5.57 µM.

Q: What about the GI50 [25] of the same compound?
A: Its GI50 is 4.36 µM.

Q: What about the TGI [25] of the same compound?
A: Its TGI is 38.5 µM.

Q: And the GI50 [26]?
A: Its GI50 is 1.49 µM.

Q: What about the TGI [26] of the same compound?
A: Its TGI is 20 µM.

Q: And the GI50 [27]?
A: Its GI50 is 3.48 µM.

Q: What about the TGI [27] of the same compound?
A: The TGI was 42.6 µM.

Q: And the GI50 [28]?
A: The GI50 was 1.94 µM.

Q: What about the TGI [28] of the same compound?
A: Its TGI is 22.2 µM.

Q: What about the GI50 [29] of the same compound?
A: The GI50 was 1.64 µM.

Q: What about the TGI [29] of the same compound?
A: The TGI was 28 µM.
